From PMC12503906, “Novel Pyrazolo [1,5‐a]−1,3,5‐Triazine Derivatives as CDK7 Inhibitors: Synthesis and Biological Insights in Pancreatic Ductal Adenocarcinoma Models” (Chemmedchem, 2025)
Values joined by “and” are separate entries in the source; they are usually repeats but may differ in a detail not shown here. Equal entries are not always repeated. Where two headings read alike, the source gives them in different places.

Key:
Bax/Bcl‐2 = Bax/Bcl‐2 ratio by RT‐PCR, PATU‐T cells; type: cell-based
Experimental: In order to understand modulation of downstream genes of CDK7, gene expression analysis by qPCR was performed in all cell lines. Cells (5 × 10^5/well) were seeded in 6‐well plates and treated with the compounds 1b and 1g at 1× and 4 × IC50 concentrations. Cell lysates were collected 24 h post‐treatment using 300 µL of TRIzol Reagent (Ambion, 15,596,018) per well. Total RNA was extracted by mixing 60 µL of chloroform to the samples, incubating for 3 min and centrifuging at 12,000 rcf for 15 min at 4 °C. The upper aqueous phase containing RNA was transferred to a new Eppendorf and mixed with 120 µL of cold isopropanol in order to allow the RNA to precipitate. Samples were incubated at RT for 10 min and were then centrifuged at 12,000 rcf for 10 min at 4 °C. The isopropanol was carefully removed, and the pellet was washed twice with 70% ETOH. Pellets were left to air dry and consequently resuspended in RNAse‐free water. Samples were left agitation on a thermomixer at 55 °C for 10 min at 600 rpm and were then quantified through NanoDrop technology (Thermo Scientific, NanoDrop One/One^c). RNA samples were stored at −80 °C.
In order to perform cDNA synthesis, the First Strand cDNA synthesis kit (Thermo Scientific, K1612) was used. The previously isolated RNA was mixed with 1 µL of oligo dT18 primer into a pcr tube. Nuclease free water was added to reach a final volume of 11 µL. Samples were centrifuged at 1200 rcf for 5 min and were then placed on a thermomixer at 65 °C for a few minutes. A master mix was prepared, including 4 µL of 5× reaction buffer, 1 µL of ribolock RNAse inhibitor, 2 µL of dntp mix (10 mM), and 2 µL of M‐mulv reverse transcriptase for each sample. In total 9 µL of master mix were added to each vial. Samples were centrifuged again and were finally synthesized, following a cycle of 60 min at 37 °C and 5 min at 70 °C. cDNA was now finally synthesized and could be stored at −20 °C. RT‐PCRs reactions were performed using SYBR Green (Bio‐Rad, 1,725,271) (5 µL per sample), primer mix (0.3 µM) (2 µL per sample), and cDNA (10 ng µL^− ^1) (3 µL per sample). […] RT‐PCR assays were carried out in a GeneAmp 5700 Sequence Detection System programmed to hold at 50 °C for 30 min, to hold at 95 °C for 10 min, and to complete 45 cycles of 95 °C for […] and 50 °C for 1 min. The genes that were investigated are shown in Table 5 , with their respective forward and reverse primer sequences.

PATU‐T GR = assay: SRB chemosensitivity assay, gemcitabine resistant PATU‐T GR cells; type: cell-based
Experimental: Three lines of immortalized PDAC cells were selected as representative phenotypes: mesenchymal (PATU‐T), quasimesenchymal (PANC‐1), and an epithelial clone of SUIT 2 cells (SUIT 2.28). Cells were cultured in noncoated T‐75 and T‐25 flasks under adherent conditions, using 1× DMEM (Gibco, 41,966,029) for PATU‐T and RPMI (Gibco, 21,875,034) for SUIT 2.28 and PANC‐1, both supplemented with 10% NBCS and 1% P/S. Additional employed models were the PDAC3 cells, a primary cell culture, the PSCs, which were immortalized healthy pancreatic cells, and the PATU‐T‐GR, which was a gemcitabine resistant model of PATU‐T. PDAC3 and PSCs were cultivated using complete RPMI medium, while PATU‐T‐GR required complete DMEM medium. For seeding, cells were detached with Trypsin‐EDTA (0.05%) (GibcoTM, 25,300–096) and were consequently counted using the Automated Cell Counter (Luna‐II, Westburg). Cells were then plated on 96‐ or 6‐well plates depending on the planned experiment.
The Sulforhodamine B (SRB) chemosensitivity assay was used to measure cytotoxicity and cell proliferation post drug treatment. At day 0, 3–6 × 10^3 cells were seeded in a 96‐well plate, depending on the cell line. At day 1, cells were attached and ready to be treated. For the calculation of the IC50, drug dilutions for the compounds 1b, 1c, 1d, 1e, 1g, 1hr, 1i, 1j, and LDC4297 (MedChemExpress, HY‐12,653) were prepared in dilution trays and eight different concentrations were included. These were added in triplicates to the cells, which were then incubated for […] at 37 °C in 5% CO2. During day 1, the control plate was fixed with 50% Trichloroacetic acid (TCA), as intended to be the baseline plate used for the normalization of the data. 72 h post‐treatment, the cells were fixed with TCA, and placed at 4 °C for about 2 h. The plates were then washed with distillated water and left to dry under the hood with ventilation. Subsequently, plates were stained with 0.4% SRB for 15 min and washed with 1% acetic acid to remove excess stain. Once dried again, the protein‐bound SRB was dissolved in 10 mM TRIS, and the plates were placed on a shaker for 10 min per plate. Lastly, the absorbance was measured at 492 nm with a spectrophotometer (Synergy HT, BioTek). The absorbance data obtained were normalized to the day 1 control, and the percentage of cell growth in relation to the control was calculated using the following formula. (1) %Cell growth=Mean OD treatment−Mean OD day0/Mean OD control−Mean OD day0×100
The percentage of proliferation and their respective standard deviations were used to perform statistical analysis in GraphPad Prism software v 10 (GraphPad Software, San Diego, CA). Data were normalized to the day 0 control and to their own untreated 72 h control. […]

Structure (SMILES) | Bax/Bcl‐2 ratio PATU‐T (Bax/Bcl‐2; 1 × IC50, 24 h after treatment) | Bax/Bcl‐2 ratio PATU‐T (Bax/Bcl‐2; 4 × IC50, 24 h after treatment) | IC50 (PATU‐T GR; SRB, gemcitabine resistant PATU‐T GR, average ± SEM, triplicate; read-out: IC50 PATU‐GR) | IC50 (PATU‐T GR; read-out: IC50 PATU‐GR, SRB, gemcitabine resistant PATU‐T GR, average ± SEM, triplicate) [µM] | IC50 (PATU‐T GR; read-out: IC50 PATU‐GR; SRB, gemcitabine resistant PATU‐T GR, average ± SEM, triplicate) [µM]
Nc1ncnc2cc(-c3c[nH]c4ccc(Br)cc34)nn12 [Compound 1b, 7‐(5‐Bromo‐1H‐indol‐3‐yl)pyrazolo[1,5‐a][1,3,5]triazin‐4‐amine] | 4.43 | 4.03 | 1.92 µM and 1.9 µM |  | 
Cn1cc(-c2cc3ncnc(N)n3n2)c2cc(Br)ccc21 [Compound 1g, 7‐(5‐Bromo‐1‐methyl‐1H‐indol‐3‐yl)pyrazolo[1,5‐a][1,3,5]triazin‐4‐amine] | 2.82 | 3.74 |  | 2.7 | 2.7 ± 0.5
